Laboratory results from patent EP0346929B1, “Treating agent for Raynaud's disease” (DAIICHI PHARMACEUTICAL CO., LTD., priority 1988, dated 1989).
Where a name gives a salt, the structure may show the parent alone.

System: Laurate-Induced Peripheral Arterial Occlusive Diseases in Rats
Assay: Effect on progression of laurate-induced peripheral arterial occlusive diseases in rats
Type: in vivo
Protocol: Effect on Progression of Laurate-Induced Peripheral Arterial Occlusive Diseases in Rats
Male Wister-Imamichi rats weighing from 370 to 422 g (purchased from Dobutsu Hanshoku Kenkyukai) were used as test animals.
Rats were anesthetized with pentobarbital (50 mg/kg, i.p.), and the right femoral artery was exposed by surgical incision. 0.1 mℓ of a sodium laurate solution (1 mg of lauric acid/mℓ-saline, pH=8.0) was injected to the right femoral artery, haemostasis was secured by application of a surgical binding "Alonalpha" (a trade name, produced by Toa Gosei Kagaku Co.) to the punctured site of the artery, and the incision was closed with the surgical binding. The animals were then fed ad lib.
The degree of the lesions was graded to 0 - IV, 4 days after the operation for gangrene and 6 days after the operation for mummification or falling off as follows: normal apperance, 0; the affected region was limited to the nail parts, I; to the fingers, II; to the whole paw, III; and extended to the lower leg, IV.
As a test compound, 6-(1-imidazolylmethyl)-5,6,7,8-tetrahydronaphthalene-2-carboxylic acid hydrochloride 1/2 hydrate (hereinafter referred to as Compound A) was dissolved in physiological saline and administered to the left femoral vein at a dose of 3 mg/5 mℓ/kg 5 minutes before the laurate injection to the femoral artery. The effect of the Compound A on suppression of the lesions were examined. The animals in control group were injected with 5 mℓ/kg of saline alone in place of the Compound A. The results obtained are shown in Table 1 below.

Structure (SMILES): O=C(O)c1ccc2c(c1)CCC(Cn1ccnc1)C2 (centres unmarked) [Compound A, 6-(1-imidazolylmethyl)-5,6,7,8-tetrahydronaphthalene-2-carboxylic acid hydrochloride 1/2 hydrate]
- Number of Animals Suffering From: Gangrene After 4 Days, grade 0 (grade 0 = normal apperance, 3 mg/5 mℓ/kg into left femoral vein 5 minutes before laurate injection, 4 days after operation): 2
- Number of Animals Suffering From: Mummification or Falling Off After 6 Days, grade 0 (grade 0 = normal apperance, 3 mg/5 mℓ/kg into left femoral vein 5 minutes before laurate injection, 6 days after operation): 2
- Number of Animals Suffering From: Gangrene After 4 Days, grade I (grade I = affected region limited to the nail parts, 3 mg/5 mℓ/kg into left femoral vein 5 minutes before laurate injection, 4 days after operation): 3
- Number of Animals Suffering From: Mummification or Falling Off After 6 Days, grade I (grade I = affected region limited to the nail parts, 3 mg/5 mℓ/kg into left femoral vein 5 minutes before laurate injection, 6 days after operation): 1
- Number of Animals Suffering From: Gangrene After 4 Days, grade II (grade II = affected region limited to the fingers, 3 mg/5 mℓ/kg into left femoral vein 5 minutes before laurate injection, 4 days after operation): 2
- Number of Animals Suffering From: Mummification or Falling Off After 6 Days, grade II (grade II = affected region limited to the fingers, 3 mg/5 mℓ/kg into left femoral vein 5 minutes before laurate injection, 6 days after operation): 3
- Number of Animals Suffering From: Mummification or Falling Off After 6 Days, grade III (grade III = affected region limited to the whole paw, 3 mg/5 mℓ/kg into left femoral vein 5 minutes before laurate injection, 6 days after operation): 1
- grade of lesions (intravenous injection of 3 mg/kg, compared with control group): reduced the grade of lesions
